What was measured:
[1] = test system: ERK phosphorylation in HCT116 cells; assay: Western blot of MAPK pathway, ERK phosphorylation; format: cell-based
Protocol: (§1) To investigate the combination effect on PI3K and MAPK pathway, compound of formula (I) and compound of formula (II) were tested on HCT116 cells.
(§2) 5×10^5 of cells were treated with compound of formula (I) alone, compound of formula (II) alone or the combination thereof at 1 μM for 24 hours in 6-well plate. After that, HCT116 cells were lysed with Cell Lysis Buffer (Cell Signaling Technology) containing protease and phosphatase inhibitors. The lysates were denatured and then subjected to SDS-PAGE. After electroblotting, the polyvinylidene fluoride membranes were blocked with Blocking One (Nacalai Tesque) for 1 h. Membranes were then incubated with primary antibodies purchased from Cell Signaling Technology Inc., and anti-actin antibody purchased from Santa Cruz Biotechnology over night at 4° C., followed by washing three times with 0.1% Tween 20 (Nacalai Tesque) in TBS buffer (TBS-T buffer; TaKaRa Bio). This was followed by 0.5 to 1 h incubation at room temperature with secondary antibodies (Cell Signaling Technology). Then, membranes were washed four times with TBS-T buffer, followed by incubation with ECL or ECL-plus solutions (GE Healthcare). Signals were detected using LAS-4000 (Fujifilm) according to the manufacturer's instructions.

[2] = test system: Akt phosphorylation in HCT116 cells; assay: Western blot of PI3K pathway, Akt phosphorylation; format: cell-based; details: 1 μM, 24 hours, FIG. 3
Protocol: as §1, §2

| Compound | phosphorylation of ERK [1] | phosphorylation of Akt [2] |
| --- | --- | --- |
| O=C(NOCCO)c1cc(CN2OCCCC2=O)c(F)c(F)c1Nc1ccc(I)cc1F [compound of formula (I), 3,4-difluoro-2-(2-fluoro-4-iodo-phenylamino)-N-(2-hydroxy-ethoxy)-5-(3-oxo-[1,2]oxazinan-2-ylmethyl)-benzamide] | suppressed |  |
| CS(=O)(=O)N1CCc2c(-c3cnc(N)nc3)nc(N3CCOCC3)nc21 [compound of formula (II), 5-(7-methanesulfonyl-2-morpholin-4-yl-6,7-dihydro-5H-pyrrolo[2,3-d]pyrimidin-4-yl)-pyrimidin-2-ylamine] |  | suppressed |

Source: US20130123255A1, “COMBINATION OF A PI3K INHIBITOR AND A MEK INHIBITOR” (CHUGAI SEIYAKU KABUSHIKI KAISHA, priority 2011, published 2013)
